± gives the standard deviation of the averaged measurements.
Experiments:
SALINOMYCIN = compound: CC[C@@H](C(=O)[C@@H](C)[C@@H](O)[C@H](C)[C@@H]1O[C@@H]([C@@H](CC)C(=O)O)CC[C@@H]1C)[C@H]1O[C@]2(C=C[C@@H](O)[C@]3(CC[C@@](C)([C@H]4CC[C@](O)(CC)[C@H](C)O4)O3)O2)[C@H](C)C[C@@H]1C [SALINOMYCIN]; test: surviving fraction relative to DMSO-only wells; higher = less growth inhibition; details: exposure time: 5 days
Method in brief: (§1)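 Viability values are CellTiter-Glo luminescence readings, given as surviving fraction against the median of DMSO-only wells. The readings were taken after 10 minutes at room temperature, following five days of continuous exposure to inhibitors at 0.5, 1, 5, 10, 50, 100, 500 and 1000 nM that began 24 hours after log-phase tumour cell lines were seeded at 250–500 cells per well in 384-well plates. Every line was screened three times and kept only if replicate Pearson r >0.7 and median Z' >0.3.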

[1] = compound: CCN(CC)CCCCNc1ncc2cc(-c3cc(OC)cc(OC)c3)c(NC(=O)NC(C)(C)C)nc2n1; test: as above; details: exposure time: 5 days
Method in brief: as §1

Row | Test System | surviving fraction (SALINOMYCIN; 0.5 nM) | surviving fraction (SALINOMYCIN; 1 nM) | surviving fraction (SALINOMYCIN; 5 nM) | surviving fraction (SALINOMYCIN; 10 nM) | surviving fraction (SALINOMYCIN; 50 nM) | surviving fraction (SALINOMYCIN; 100 nM) | surviving fraction (SALINOMYCIN; 500 nM) | surviving fraction (SALINOMYCIN; 1000 nM) | surviving fraction ([1]; 0.5 nM) | surviving fraction ([1]; 1 nM) | surviving fraction ([1]; 5 nM) | surviving fraction ([1]; 10 nM) | surviving fraction ([1]; 50 nM) | surviving fraction ([1]; 100 nM) | surviving fraction ([1]; 500 nM) | surviving fraction ([1]; 1000 nM)
1 | G292 BONE | 0.971 ± 0.016 | 0.967 ± 0.055 | 1 ± 0.086 | 0.966 ± 0.046 | 0.932 ± 0.017 | 0.828 ± 0.013 | 0.204 ± 0.011 | 0.146 ± 0.0081 | 0.836 ± 0.27 | 0.97 ± 0.048 | 0.958 ± 0.027 | 0.918 ± 0.042 | 0.495 ± 0.17 | 0.387 ± 0.008 | 0.181 ± 0.012 | 0.18 ± 0.0066
2 | HCC38 BREAST | 1.26 ± 0.26 | 1.14 ± 0.15 | 1.3 ± 0.19 | 1.26 ± 0.081 | 1.05 ± 0.14 | 0.862 ± 0.2 | 0.415 ± 0.03 | 0.317 ± 0.052 | 1.15 ± 0.23 | 0.97 ± 0.19 | 1.15 ± 0.17 | 1.12 ± 0.19 | 0.979 ± 0.37 | 1.04 ± 0.18 | 0.824 ± 0.17 | 0.846 ± 0.2
3 | HCC70 BREAST | 0.915 ± 0.055 | 1.011 ± 0.0081 | 1.02 ± 0.035 | 0.973 ± 0.022 | 0.948 ± 0.11 | 0.671 ± 0.061 | 0.251 ± 0.011 | 0.147 ± 0.015 | 0.977 ± 0.084 | 1 ± 0.017 | 0.957 ± 0.12 | 1.07 ± 0.041 | 1.05 ± 0.06 | 1.08 ± 0.037 | 0.962 ± 0.055 | 1 ± 0.09
4 | HMLE3 BREAST | 0.898 ± 0.036 | 0.894 ± 0.1 | 1.02 ± 0.028 | 0.926 ± 0.09 | 1.19 ± 0.032 | 0.988 ± 0.028 | 0.056 ± 0.0095 | 0.0347 ± 0.0042 | 0.929 ± 0.061 | 0.934 ± 0.049 | 0.895 ± 0.05 | 0.995 ± 0.056 | 0.764 ± 0.049 | 0.683 ± 0.052 | 0.428 ± 0.0075 | 0.41 ± 0.023
5 | HMT3552 BREAST | 1.07 | 1 | 1.07 | 1.11 | 1.13 | 1.05 | 0.801 | 0.728 | 1.15 | 0.971 | 0.993 | 1.05 | 0.89 | 0.98 | 0.827 | 0.803
6 | HS57T BREAST | 0.986 ± 0.077 | 0.949 ± 0.062 | 1.07 ± 0.057 | 1.03 ± 0.042 | 1.03 ± 0.013 | 0.813 ± 0.036 | 0.28 ± 0.02 | 0.158 ± 0.011 | 0.932 ± 0.022 | 0.899 ± 0.03 | 0.977 ± 0.067 | 0.952 ± 0.015 | 0.67 ± 0.03 | 0.693 ± 0.078 | 0.577 ± 0.021 | 0.579 ± 0.089
7 | HS578T BREAST | 0.874 ± 0.12 | 0.894 ± 0.036 | 0.993 ± 0.16 | 1.01 ± 0.11 | 1.05 ± 0.076 | 0.826 ± 0.096 | 0.589 ± 0.033 | 0.526 ± 0.041 | 0.97 ± 0.1 | 1.03 ± 0.19 | 0.973 ± 0.098 | 1.02 ± 0.02 | 0.836 ± 0.021 | 0.801 ± 0.056 | 0.886 ± 0.096 | 0.738 ± 0.095
